Measured values reported in patent US12036262B2, “Edible plant-derived nanoparticles for regulation of gut microbiota” (University of Louisville Research Foundation, Inc., priority 2017, dated 2024).

Columns and labels:
SpaC [1] = assay: SpaC expression in LGG (qPCR, Western blotting); format: cell-based, Lactobacillus rhamnosus; conditions: compared with scrambled miRNA
Protocol: Quantitative Real-Time PCR for RNA Expression. The quantity of mature miRNAs was determined with quantitative real-time PCR (qPCR) using a miScript II RT kit (QIAGEN Inc., Germantown, Maryland, United States of America) and miScript SYBR Green PCR Kit (QIAGEN) with QIAGEN 3′ universal primers. For analysis of gene mRNA expression, 1 μg of total RNA was reverse transcribed using SuperScript III reverse transcriptase (Invitrogen, Waltham, Massachusetts, United States of America), and quantitation was performed using SsoAdvanced™ Universal SYBR Green Supermix (Bio-Rad Laboratories, Inc., Hercules, California, United States of America) and the listed primers (Table 1) with SsoAdvanced™ Universal SYBR Green Supermix (Bio-Rad). qPCR was performed using a Bio-Rad CFX96 qPCR System with each reaction run in triplicate. Analysis and fold-changes were determined using the comparative threshold cycle (Ct) method. Changes in miRNA or mRNA expression were calculated as fold-change.
Western Blotting. LGG cells were treated as indicated in each individual Figure and harvested from 100-350 ml cultures by centrifugation at 5,000×g for 10 minutes. […] After the Alexa Fluor-647 (Invitrogen) conjugated secondary antibody incubation, the bands were visualized and analyzed using an Odyssey Imager (LI-COR, Lincoln, Nebraska, United States of America). […]

SpaC [2] = assay: Immunogold labeling of LGG pili and TEM; format: cell-based, Lactobacillus rhamnosus; conditions: compared with PBS or scrambled miRNA
Protocol: Immunogold Labeling of LGG Pili and TEM. To visualize LGG pili via transmission electron microscopy (TEM), LGG cultures were grown overnight (OD600<1.0) and washed once with PBS. Formvar-carbon-coated copper grids (Electron Microscopy Sciences, Hatfield, Pennsylvania, United States of America) first were floated for 1 hour on droplets of the diluted LGG at 10^7/mL in PBS, washed several times with 0.02 M glycine in PBS, and then treated with a blocking solution of 1% bovine serum albumin (BSA) in PBS. The grids were then floated for 1 hour on droplets of anti-SpaC serum (1:100) in blocking solution. After a wash with 0.1% BSA in PBS, the grids were incubated for 20 minutes with protein A-conjugated 10-nm-diameter gold particles (Cytodiagnostics, Burlington, Ontario, Canada) diluted 1:55 in blocking solution. After one wash in PBS, the grids were fixed with 1% glutaraldehyde, washed with distilled water, and then stained with 1% ammonium molybdate on the surface of the EM grid. After excess ammonium molybdate was removed from the grid, images were visualized using a Thermo-Fisher TEM Tecnai Spirit at 80 kV, and images were collected with an AMT XR60 digital camera.

MC-38 cells = assay: Migration assay, intracellular LGG; format: cell-based, C57BL/6 murine
Protocol: Cells. C57BL/6 murine colon adenocarcinoma MC-38 cells (gender unknown; Kerafast, Inc., Boston, Massachusetts, United States of America) or human epithelial colorectal adenocarcinoma Caco-2 cells (American Type Culture Collection, ATCC®, Manassas, Virginia, United States of America) were grown in tissue culture plates with Dulbecco's modified Eagle's medium (DMEM) supplemented with 10% heat-inactivated fetal bovine serum (FBS), 100 U/mL penicillin, and 100 μg/mL streptomycin at 37° C. in a 5% CO2 atmosphere.
Migration Assays. MC-38 or Caco-2 cells (ATCC) were seeded at 1×10^5 cells per well in a 12-well tissue culture plate with Dulbecco's modified Eagle's medium (DMEM) without antibiotics. The cells were inoculated with 1×10^7 bacteria per well for 90 minutes at 37° C. in a 5% CO2 atmosphere to allow bacterial adhesion and entry. The number of intracellular bacteria was quantified as described in Zhang & Wang, 1998.

[3] = test system: Lactobacillus rhamnosus GG (LGG); assay: LGG proliferation in culture (OD600); format: cell-based; conditions: compared with scrambled miRNA
Protocol: Bacteria. Lactobacillus rhamnosus (LGG) was obtained from ATCC® (Catalog No. 53103). The SpaC-deleted LGG was cultured in Lysogeny broth (LB; ISC BioExpress, Kaysville, Utah, United States of America) at 37° C. Ruminococcaceae sp. (ATCC® Catalog No. TSD-27) was grown in GS2+cellobiose medium (Biddle et al., 2013). Listeria monocytogenes (Listeria; ATCC® Catalog No. 15313) and Bacteroides fragilis (Fragilis, NCTC 9343) were cultured in brain heart infusion (BHI) broth (Hardy Diagnostics, Santa Maria, California, United States of America) as described in Zhang & Wang, 2015 and Deng et al., 2015, respectively. LGG was grown in MRS broth media at 37° C. in anaerobic conditions for 14-16 hours to an OD600 of 0.8-1.0. Bacterial viability and concentration were checked by MRS agar platting. Cultures were centrifuged and the bacterial pellet was diluted in MRS for in vitro experiments and in PBS for gavaging at 10^9 CFU/mouse per day.

ath-miR167a: GELN miRNA, SEQ ID NO: 9 (UGAAGCUGCCAGCAUGAUCUA; expressed or natural sequence)
SpaC expression in LGG (SpaC [1]): significantly down-regulated
SpaC protein on pili of LGG (TEM) (SpaC [2]): much less SpaC protein could be detected on pili
LGG entry into MC38 cells (MC-38 cells): could prevent the entry of LGG into gut epithelial cells
growth of SpaC^del LGG [3]: no effect
